This note sets out measurements from article PMC9791066, “Investigations into the antibacterial effects and potential mechanism of gambogic acid and neogambogic acid” (Frontiers in Microbiology, 2022).

Each structure is given as a SMILES string. In brackets after ≈: the same amount, converted by molar mass. Like-named read-outs stand apart in the source and are kept apart here.

For test [1], the target named is T1, Enterococcus faecalis UPPS (EfaUPPS), wild-type (Enterococcus faecalis, UniProt Q831K9).
T1 construct: His tag; made in house; host or cells: E. coli BL21(DE3)
T1 sequence (Q831K9 whole entry): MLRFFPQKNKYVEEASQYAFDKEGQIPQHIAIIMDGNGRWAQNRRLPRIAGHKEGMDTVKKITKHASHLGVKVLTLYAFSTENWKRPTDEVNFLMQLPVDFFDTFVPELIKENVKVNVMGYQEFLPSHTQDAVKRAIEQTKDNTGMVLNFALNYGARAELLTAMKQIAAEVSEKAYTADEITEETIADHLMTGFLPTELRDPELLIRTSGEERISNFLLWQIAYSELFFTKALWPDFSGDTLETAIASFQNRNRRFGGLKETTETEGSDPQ
The experiment in a line: UPPS inhibition assay (enzyme-coupled fluorescence), wild-type EfaUPPS. It counts as biochemical. As for the experimental part: Enterococcus faecalis undecaprenyl pyrophosphate synthase (EfaUPPS) recombination studies were performed as previously described ([Li et al., 2020]). Briefly, the full-length gene sequence of EfaUPPS was cloned into the NdeI and HindIII sites of pET28a vector under control of T7 promoter. The sequenced plasmid was then transformed into E. coli strain BL21(DE3) (Invitrogen) and the transformants were grown on LB broth media supplemented with 50 μg/mL kanamycin. A single colony of the transformant was then cultured in 100 mL of LB broth containing 50 μg/mL kanamycin overnight. The overnight cultures were inoculated into 1 L of LB broth containing 50 μg/mL kanamycin and continue to culture until reaching an OD600 of 0.8. Upon reaching the optimal growth states, the cultures were induced by addition of 1 mM isopropyl-β-D-thiogalactoside (IPTG), and then cultured at 16°C for 16 h. […]
The UPPS inhibition assay was carried out by measuring the fluorescence of the reaction mixture in a black 96-well microtiter plate (Corning, United States). […] The UPPS inhibitory activity was performed by calculating the fluorescence percentage through determining the fluorescence absorbance of reaction mixture at 316 and 456 nm. […]

Test [2] has as its system Staphylococcus aureus ATCC29213. Nature of the test: MIC, microtiter broth dilution. It counts as cell-based. The conditions noted are these: Staphylococcus aureus. As for the experimental part: (§1) Antibacterial activities were performed by examining the minimal inhibitory concentrations (MICs), which was determined by a microtiter broth dilution method as previously described ([Cotsonas King and Wu, 2009]), with minor modifications. Briefly, 96-well plates (Corning) were inoculated with 100 μl of LB broth per well containing 7 × 10^5 CFU/mL bacteria, followed by adding 100 μl of LB broth containing two-fold serial dilutions of the test compounds. […] After 18 h of incubation, the MIC was determined to be the lowest concentration without visible bacterial growth. The results were the averages of at least three biological replicates.
Background: In broth dilution the organism is exposed to a series of concentrations in liquid medium.

The test system of test [3] is Enterococcus faecalis ATCC29212. Nature of the test: MIC, microtiter broth dilution. The conditions noted are these: Enterococcus faecalis. It counts as cell-based. The protocol:
as §1

Test [4] has as its system Listeria monocytogenes ATCC19117. Nature of the test: MIC, microtiter broth dilution. Format: cell-based. The conditions noted are these: Listeria monocytogenes. As for the experimental part:
as §1

Test [5] has as its system Escherichia coli ATCC25922. The experiment in a line: MIC, microtiter broth dilution. Format: cell-based. As to conditions: Escherichia coli. As for the experimental part:
as §1

In the next test the target is T2, EfaUPPS (R42A) (Enterococcus faecalis, UniProt Q831K9, R48A).
T2 construct: His tag; made in house; host or cells: E. coli BL21(DE3)
T2 sequence (Q831K9 whole entry R48A): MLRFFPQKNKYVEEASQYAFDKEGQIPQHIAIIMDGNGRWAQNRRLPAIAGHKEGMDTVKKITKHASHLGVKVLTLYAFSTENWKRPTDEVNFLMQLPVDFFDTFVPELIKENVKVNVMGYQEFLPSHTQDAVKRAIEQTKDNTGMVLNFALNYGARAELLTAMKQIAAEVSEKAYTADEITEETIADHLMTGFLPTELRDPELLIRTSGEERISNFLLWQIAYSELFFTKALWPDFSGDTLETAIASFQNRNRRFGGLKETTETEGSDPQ
The experiment in a line: Microscale thermophoresis binding assay, EfaUPPS R42A. The protocol:
(§2) To characterize the binding affinity between EfaUPPS and GA or NGA, the MST binding assay was performed as previously described ([Lin et al., 2020]). In brief, His-tagged EfaUPPS and site-directed mutated EfaUPPS were labeled with the NT- 647-NHS dye using the Monolith NTTM Protein Labeling Kit RED-NHS (NanoTemper Technologies). Two-fold serially diluted GA or NGA was mixed with 10 nM of labeled EfaUPPS or its derivatives in 10 μl of binding buffer (137 mM NaCl, 2.7 mM KCl, 10 mM Na2HPO4, 1.8 mM KH2PO4, and 0.05% Tween-20, pH 7.8), incubated for 15 min, at room temperature. And then, loaded the mixtures into NT.115 premium coated capillaries (NanoTemper Technologies). MST trace signals were collected from the IR laser on to off for about 20 s, under the 5% LED power and high MST power mode. The change of molecular thermophoresis was monitored by standardized fluorescence value Fnorm, and the binding curve was plotted according to the values of Fnorm. The formed complex affinity was analyzed by MO Affinity Analysis software version 2.3. Apparent dissociation constants (Kd) were calculated using nonlinear fitting assuming one specific binding site with the GraphPad Prism 7 software with the following formula: Y = B^∗Max X/KD + X.
(§3) (^∗ where BMax is the maximum theoretical specific binding; here BMax = 1).

For test [6], the system named is E. coli BAS849 transformed with pQE80L or pQE80L-EfaUPPS variants. Nature of the test: Ex-vivo growth inhibition assay. Format: cell-based, Escherichia coli. The conditions noted are these: compound at 8 μg/mL. As for the experimental part:
The E. faecalis ATCC29212 undecaprenyl pyrophosphate synthase genes, and the L91A and L146A mutation fragments were cloned into the BamH I and Hind III digested pQE80Lvector, respectively. The resulting plasmids were transformed into E. coli BAS849, respectively. The strain transformed with the empty vector pQE80L was used as a negative control. A single colony of each transformant was inoculated into LB broth supplemented with 100 μg/mL ampicillin and incubated at 200 rpm, 37°C overnight. After diluted the cultures to 7 × 10^5 CFU/mL by LB broth, 5 μl of each diluted cultures were dripped onto a LB agar plate supplemented with IPTG (0.5 mM), and GA or NGA (8 μg/mL) followed by cultivation at 37°C overnight, and then imaged. In the meantime, another 5 μl of each diluted cultures were diluted in 100 ul LB and coated on the relevant plates to check for bacterial CFUs.

Another test deals with T3, EfaUPPS (L146A) (Enterococcus faecalis, UniProt Q831K9, L152A).
T3 construct: His tag; made in house; host or cells: E. coli BL21(DE3)
T3 sequence (Q831K9 whole entry L152A): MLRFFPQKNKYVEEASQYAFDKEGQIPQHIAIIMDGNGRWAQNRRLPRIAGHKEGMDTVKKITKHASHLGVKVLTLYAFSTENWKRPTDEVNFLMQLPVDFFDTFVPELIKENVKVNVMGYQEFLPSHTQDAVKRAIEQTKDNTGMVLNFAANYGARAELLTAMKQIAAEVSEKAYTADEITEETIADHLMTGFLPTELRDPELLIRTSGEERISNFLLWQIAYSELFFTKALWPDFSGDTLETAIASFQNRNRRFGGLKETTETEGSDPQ
The experiment in a line: Microscale thermophoresis binding assay, EfaUPPS L146A. As to conditions: MST, no binding. As for the experimental part: as §2, §3
(In MST a laser heats a spot of the sample, and binding alters the fluorescence response.)

[7] abbreviates: overexpression of wild-type EfaUPPS.

By IC50 is commonly meant the concentration that gives 50% inhibition. By MIC is commonly meant the lowest concentration that inhibits growth of the organism. Broadly, the Kd is the concentration at which binding is half-saturated. A low value points to tighter binding. As to `CC(C)=CCC[C@]1(C)C=Cc2c(O)c3c(c(CC=C(C)C)c2O1)O[C@]12C(=C[C@@H]4C[C@H]1C(C)(C)O[C@@]2(C/C=C(/C)C(=O)O)C4=O)C3=O` [GA, gambogic acid], in test [1] (WT EfaUPPS, 35 μM IPP, 5 μM FPP, read-out: IC50), the IC50 is 3.08 µM. For the same molecule, the MIC is 2 µg/mL (≈ 3.18 µM) in test [2] (ATCC29213, LB broth, 18 h, read-out: MIC); 2 µg/mL (≈ 3.18 µM) in test [3] (ATCC29212, LB broth, 18 h, read-out: MIC); 4 µg/mL (≈ 6.36 µM) in test [4] (ATCC19117, LB broth, 18 h, read-out: MIC); > 64 µg/mL in test [5] (ATCC25922, LB broth, 18 h, read-out: MIC). In addition, the Kd is 40.5 ± 17.2 µM at EfaUPPS (R42A) and > 50000 µM at EfaUPPS (L146A). Moreover, the “growth of E. coli BAS849” value in test [6] (empty vector pQE80L) is “completely inhibited”; in test [6] (setting [7]) it was “rescued the cell growth”; in test [6] (pQE80L-EfaUPPS L91A), “moderate resistance”; in test [6] (pQE80L-EfaUPPS L146A), “moderate resistance”.
Turning to `CC(C)=CCC[C@]1(C)CC(O)c2c(O)c3c(c(CC=C(C)C)c2O1)O[C@]12C(=C[C@@H]4C[C@H]1C(C)(C)O[C@@]2(C/C=C(/C)C(=O)O)C4=O)C3=O` (some centres unmarked) [NGA, neogambogic acid], the IC50 in test [1] is 3.07 µM. Besides, the MIC in test [2] (ATCC29213, 18 h) was 4 µg/mL (≈ 6.18 µM); in test [3] (ATCC29212, 18 h), 2 µg/mL (≈ 3.09 µM); in test [4] (ATCC19117, 18 h) it was 4 µg/mL (≈ 6.18 µM); in test [5] (ATCC25922, 18 h) it was > 64 µg/mL. Further, the equilibrium dissociation constant (Kd) on EfaUPPS (R42A) was 62.9 ± 25.4 µM; on EfaUPPS (L146A), > 50000 µM. Further, on EfaUPPS (R42A) (R42A vs wild-type), the “Kd fold higher than that of the wild-type” value is reported as “about 10 fold”. The “growth of E. coli BAS849” value was “completely inhibited” in test [6] (empty vector pQE80L), “rescued the cell growth” in test [6] (setting [7]), “moderate resistance” in test [6] (pQE80L-EfaUPPS L91A) and “moderate resistance” in test [6] (pQE80L-EfaUPPS L146A).
